Measurements: US8680275B2, “Fused heterocyclic compounds as orexin receptor modulators” (Janssen Pharmaceutica NV, priority 2009, dated 2014)

Assays:
[1] = target: human orexin-2 receptor (Homo sapiens (Human), UniProt O43614); experiment: Human orexin 2 receptor radioligand binding ([3H]-EMPA competition); details: HEK293 cells stably expressing human orexin-2 receptor; [3H]-EMPA 5 nM final; read-out: OR-2 Ki
How it was run: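 Competition binding on HEK293 cells stably expressing human orexin-2 receptor, using 5 nM final [3H]-EMPA in PBS, compounds 0.1 nM to 10 μM (DMSO ≤0.1%). 60 min at room temperature, then filtration and scintillation counting; nonspecific binding defined with 10 μM of a reference antagonist.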

[2] = target: human orexin 1 receptor (Homo sapiens (Human), UniProt O43613); experiment: Human orexin 1 receptor radioligand binding ([3H]-SB674042 competition); details: CHO cells stably expressing human orexin 1 receptor; [3H]-SB674042 4 nM final; read-out: OR-1 Ki
How it was run: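 CHO cells stably expressing human OX1R incubated 60 min at room temperature with [3H]-SB674042 and compounds (7 concentrations, 0.1 nM–10 μM; DMSO ≤0.1%) in PBS. Nonspecific binding defined with 10 μM of a reference urea antagonist; bound radioactivity measured by filtration and scintillation counting.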

human orexin-2 receptor, sequence (O43614 whole entry): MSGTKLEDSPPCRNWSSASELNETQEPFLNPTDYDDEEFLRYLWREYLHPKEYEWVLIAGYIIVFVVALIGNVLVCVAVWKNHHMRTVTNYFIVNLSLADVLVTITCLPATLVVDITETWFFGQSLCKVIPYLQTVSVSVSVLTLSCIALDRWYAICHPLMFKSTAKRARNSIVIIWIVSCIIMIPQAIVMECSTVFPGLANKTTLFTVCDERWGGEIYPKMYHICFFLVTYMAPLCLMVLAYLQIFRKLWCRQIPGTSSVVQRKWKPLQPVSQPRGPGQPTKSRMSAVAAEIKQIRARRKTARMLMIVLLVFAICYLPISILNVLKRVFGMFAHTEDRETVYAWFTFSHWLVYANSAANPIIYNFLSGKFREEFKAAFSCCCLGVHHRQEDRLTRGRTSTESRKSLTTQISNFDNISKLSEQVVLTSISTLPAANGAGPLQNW
human orexin 1 receptor, sequence (O43613 whole entry): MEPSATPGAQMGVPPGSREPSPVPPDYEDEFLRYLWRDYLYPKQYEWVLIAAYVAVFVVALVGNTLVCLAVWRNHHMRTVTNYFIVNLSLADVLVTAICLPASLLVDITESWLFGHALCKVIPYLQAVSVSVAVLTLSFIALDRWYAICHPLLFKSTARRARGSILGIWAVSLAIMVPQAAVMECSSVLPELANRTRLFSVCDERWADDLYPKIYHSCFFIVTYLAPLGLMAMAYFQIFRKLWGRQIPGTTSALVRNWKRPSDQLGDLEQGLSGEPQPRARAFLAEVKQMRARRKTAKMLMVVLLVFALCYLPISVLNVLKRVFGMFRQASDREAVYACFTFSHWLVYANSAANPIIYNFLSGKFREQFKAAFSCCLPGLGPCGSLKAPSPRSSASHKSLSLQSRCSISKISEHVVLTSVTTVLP

Row | Structure (SMILES) | Ki [1] [nM] | Ki [2] [nM]
1 | COc1ccc(C(=O)N2CC[C@H]3CN(c4cc(N(C)C)ccn4)[C@H]3C2)c(-n2nccn2)c1 [Example 142, 2-[(1R,6S)-3-{[4-Methoxy-2-(2H-1,2,3-triazol-2-yl)phenyl]carbonyl}-3,8-diazabicyclo[4.2.0]oct-8-yl]-N,N-dimethylpyridin-4-amine] | 9000 | 10000
2 | CN(C)c1ccnc(N2C[C@@H]3CCN(C(=O)c4cccc(F)c4-c4ncccn4)C[C@@H]32)c1 [Example 143, 2-{(1R,6S)-3-[(3-Fluoro-2-pyrimidin-2-ylphenyl)carbonyl]-3,8-diazabicyclo[4.2.0]oct-8-yl}-N,N-dimethylpyridin-4-amine] | 9000 | 10000
3 | CN(C)c1ccnc(N2C[C@@H]3CCN(C(=O)c4cccc(F)c4-n4nccn4)C[C@@H]32)c1 [Example 144, 2-[(1R,6S)-3-{[3-Fluoro-2-(2H-1,2,3-triazol-2-yl)phenyl]carbonyl}-3,8-diazabicyclo[4.2.0]oct-8-yl]-N,N-dimethylpyridin-4-amine] | 2810 | 10000
4 | COc1ccc(C(=O)N2CC[C@H]3CN(c4cc(C(F)(F)F)ccn4)[C@H]3C2)c(-n2nccn2)c1 [Example 146, (1R,6S)-3-{[4-Methoxy-2-(2H-1,2,3-triazol-2-yl)phenyl]carbonyl}-8-[4-(trifluoromethyl)pyridin-2-yl]-3,8-diazabicyclo[4.2.0]octane] | 299 | 9000
5 | Cc1cc(C)nc(N2C[C@@H]3CCN(C(=O)c4cccc(F)c4-n4nccn4)C[C@@H]32)c1 [Example 148, (1R,6S)-8-(4,6-Dimethylpyridin-2-yl)-3-{[3-fluoro-2-(2H-1,2,3-triazol-2-yl)phenyl]carbonyl}-3,8-diazabicyclo[4.2.0]octane] | 36 | 845
6 | COc1ccc(C(=O)N2CC[C@H]3CN(c4cc(C)cc(C)n4)[C@H]3C2)c(-n2nccn2)c1 [Example 149, (1R,6S)-8-(4,6-Dimethylpyridin-2-yl)-3-{[4-methoxy-2-(2H-1,2,3-triazol-2-yl)phenyl]carbonyl}-3,8-diazabicyclo[4.2.0]octane] | 190 | 10000
7 | COc1ccc(-n2nccn2)c(C(=O)N2CC[C@H]3CN(c4cc(N(C)C)ccn4)[C@H]3C2)c1 [Example 150, 2-[(1R,6S)-3-{[5-Methoxy-2-(2H-1,2,3-triazol-2-yl)phenyl]carbonyl}-3,8-diazabicyclo[4.2.0]oct-8-yl]-N,N-dimethylpyridin-4-amine] | 532 | 10000
8 | Cc1cc(C)nc(N2C[C@@H]3CCN(C(=O)c4cccc(F)c4-c4ncccn4)C[C@@H]32)c1 [Example 153, (1R,6S)-8-(4,6-Dimethylpyridin-2-yl)-3-[(3-fluoro-2-pyrimidin-2-ylphenyl)carbonyl]-3,8-diazabicyclo[4.2.0]octane] | 82 | 687
9 | COc1ccc(Br)c(C(=O)N2CC[C@H]3CN(c4nc(C)cc(C)n4)[C@H]3C2)c1F [Example 154, (1R,6S)-3-[(6-Bromo-2-fluoro-3-methoxyphenyl)carbonyl]-8-(4,6-dimethylpyrimidin-2-yl)-3,8-diazabicyclo[4.2.0]octane] | 140 | 1200
10 | Cc1cnc(-n2nccn2)c(C(=O)N2CC[C@H]3CN(c4nc(C)cc(C)n4)[C@H]3C2)c1 [Example 160, (1R,6S)-8-(4,6-Dimethylpyrimidin-2-yl)-3-{[5-methyl-2-(2H-1,2,3-triazol-2-yl)pyridin-3-yl]carbonyl}-3,8-diazabicyclo[4.2.0]octane] | 370 | 6000
11 | COc1ccc(C(=O)N2CC[C@H]3CN(c4nc(C)cc(C)n4)[C@H]3C2)c(-n2nccn2)n1 [Example 162, (1R,6S)-8-(4,6-Dimethylpyrimidin-2-yl)-3-{[6-methoxy-2-(2H-1,2,3-triazol-2-yl)pyridin-3-yl]carbonyl}-3,8-diazabicyclo[4.2.0]octane] | 380 | 10000
12 | COc1ccc(C(=O)N2CC[C@H]3CN(c4nc(C)cc(C)n4)[C@H]3C2)c(-n2ccnn2)n1 [Example 163, (1R,6S)-8-(4,6-Dimethylpyrimidin-2-yl)-3-{[6-methoxy-2-(1H-1,2,3-triazol-1-yl)pyridin-3-yl]carbonyl}-3,8-diazabicyclo[4.2.0]octane] | 700 | 10000
13 | Cc1cc(C)nc(N2C[C@@H]3CCN(C(=O)c4cc(F)ccc4Br)C[C@@H]32)n1 [Example 164, (1R,6S)-3-[(2-Bromo-5-fluorophenyl)carbonyl]-8-(4,6-dimethylpyrimidin-2-yl)-3,8-diazabicyclo[4.2.0]octane] | 190 | 3900

Further compounds by falling Ki [1], results first:

Row | Ki [1] [nM] | Ki [2] [nM] | Structure (SMILES)
14 | 734 | 9000 | Cc1cccc(C(=O)N2CC[C@H]3CN(c4cc(N(C)C)ccn4)[C@H]3C2)c1-n1nccn1 [Example 141, N,N-Dimethyl-2-[(1R,6S)-3-{[3-methyl-2-(2H-1,2,3-triazol-2-yl)phenyl]carbonyl}-3,8-diazabicyclo[4.2.0]oct-8-yl]pyridin-4-amine]
15 | 540 | 10000 | Cc1cc(C)nc(N2C[C@@H]3CCN(C(=O)c4ccc(C(F)(F)F)nc4-n4ccnn4)C[C@@H]32)n1 [Example 159, (1R,6S)-8-(4,6-Dimethylpyrimidin-2-yl)-3-{[2-(1H-1,2,3-triazol-1-yl)-6-(trifluoromethyl)pyridin-3-yl]carbonyl}-3,8-diazabicyclo[4.2.0]octane]
16 | 280 | 4500 | Cc1cnc(-n2ccnn2)c(C(=O)N2CC[C@H]3CN(c4nc(C)cc(C)n4)[C@H]3C2)c1 [Example 161, (1R,6S)-8-(4,6-Dimethylpyrimidin-2-yl)-3-{[5-methyl-2-(1H-1,2,3-triazol-1-yl)pyridin-3-yl]carbonyl}-3,8-diazabicyclo[4.2.0]octane]
17 | 230 | 3900 | Cc1cc(C)nc(N2C[C@@H]3CCN(C(=O)c4cc(C)c(C)nc4-n4nccn4)C[C@@H]32)n1 [Example 157, (1R,6S)-8-(4,6-Dimethylpyrimidin-2-yl)-3-{[5,6-dimethyl-2-(2H-1,2,3-triazol-2-yl)pyridin-3-yl]carbonyl}-3,8-diazabicyclo[4.2.0]octane]
18 | 223 | 1850 | O=C(c1cccc(F)c1-c1ncccn1)N1CC[C@H]2CN(c3cc(C(F)(F)F)ccn3)[C@H]2C1 [Example 152, (1R,6S)-3-[(3-Fluoro-2-pyrimidin-2-ylphenyl)carbonyl]-8-[4-(trifluoromethyl)pyridin-2-yl]-3,8-diazabicyclo[4.2.0]octane]
19 | 208 | 6500 | COc1ccc(-n2nccn2)c(C(=O)N2CC[C@H]3CN(c4cc(C)ccn4)[C@H]3C2)c1 [Example 139, (1R,6S)-3-{[5-Methoxy-2-(2H-1,2,3-triazol-2-yl)phenyl]carbonyl}-8-(4-methylpyridin-2-yl)-3,8-diazabicyclo[4.2.0]octane]
20 | 185 | 860 | COc1ccc(-c2ncccn2)c(C(=O)N2CC[C@H]3CN(c4nc(C)cc(C)n4)[C@H]3C2)c1F [Example 156, (1R,6S)-8-(4,6-Dimethylpyrimidin-2-yl)-3-[(2-fluoro-3-methoxy-6-pyrimidin-2-ylphenyl)carbonyl]-3,8-diazabicyclo[4.2.0]octane]
21 | 170 | 3200 | Cc1cc(C)nc(N2C[C@@H]3CCN(C(=O)c4cc(C)c(C)nc4-n4ccnn4)C[C@@H]32)n1 [Example 158, (1R,6S)-8-(4,6-Dimethylpyrimidin-2-yl)-3-{[5,6-dimethyl-2-(1H-1,2,3-triazol-1-yl)pyridin-3-yl]carbonyl}-3,8-diazabicyclo[4.2.0]octane]
22 | 110 | 3300 | O=C(c1cccc(F)c1-n1nccn1)N1CC[C@H]2CN(c3cc(C(F)(F)F)ccn3)[C@H]2C1 [Example 145, (1R,6S)-3-{[3-Fluoro-2-(2H-1,2,3-triazol-2-yl)phenyl]carbonyl}-8-[4-(trifluoromethyl)pyridin-2-yl]-3,8-diazabicyclo[4.2.0]octane]
23 | 91 | 793 | Cc1cccc(C(=O)N2CC[C@H]3CN(c4cc(C(F)(F)F)ccn4)[C@H]3C2)c1-n1nccn1 [Example 147, (1R,6S)-3-{[3-Methyl-2-(2H-1,2,3-triazol-2-yl)phenyl]carbonyl}-8-[4-(trifluoromethyl)pyridin-2-yl]-3,8-diazabicyclo[4.2.0]octane]
24 | 70 | 1070 | COc1ccc(-n2nccn2)c(C(=O)N2CC[C@H]3CN(c4cc(C(F)(F)F)ccn4)[C@H]3C2)c1 [Example 140, (1R,6S)-3-{[5-Methoxy-2-(2H-1,2,3-triazol-2-yl)phenyl]carbonyl}-8-[4-(trifluoromethyl)pyridin-2-yl]-3,8-diazabicyclo[4.2.0]octane]
25 | 57 | 1530 | Cc1cc(C)nc(N2C[C@@H]3CCN(C(=O)c4cccc(F)c4-n4cccn4)C[C@@H]32)n1 [Example 155, (1R,6S)-8-(4,6-Dimethylpyrimidin-2-yl)-3-{[3-fluoro-2-(1H-pyrazol-1-yl)phenyl]carbonyl}-3,8-diazabicyclo[4.2.0]octane]
26 | 17 | 341 | COc1ccc(-n2nccn2)c(C(=O)N2CC[C@H]3CN(c4cc(C)cc(C)n4)[C@H]3C2)c1 [Example 151, (1R,6S)-8-(4,6-Dimethylpyridin-2-yl)-3-{[5-methoxy-2-(2H-1,2,3-triazol-2-yl)phenyl]carbonyl}-3,8-diazabicyclo[4.2.0]octane]
